Read-outs that look alike come from different tables or passages of the source.
How the values were obtained:
[1] = test system: Leiomyosarcoma/abdominal patient tumor cells; assay: Alamar Blue anti-tumor screen, IC50 on patient tumor cells, tumor #1; type: cell-based, human; settings: triplicate
Excerpt: (§1) Excess tissue specimens obtained from patients undergoing therapeutic surgical resections were freshly obtained at the time of surgery and a small portion of the specimen was sent for pathological testing. For diagnosis and grading of tissue samples (ie: prior to processing), hematoxylin and eosin stained tissue sections were examined by a pathologist. If the diagnosis and grading of the tissue concurred with the determination made by the surgical pathologist that provided the tissue, then the tissue was used in the screen. If there was no agreement, then two additional pathologists served as referees. If no consensus was reached, then the tissue was not used. […]
(§2) After tissue processing, the relative purity of the resulting cell suspension was determined by cytological examination after fixation and Papanicolaou staining. […]
(§3) Cell preparations that passed histological and cytological examination for diagnosis, grading, and cell purity were thawed at 37° C. and resuspended in tissue culture medium designed to maintain the cells during the incubation period. The live and dead cells were counted and the cells were diluted in culture medium to 1.0×10^3 live cells/test well for tumor cells and 3.3×10^3 live cells/test well for normal cells. […]
(§4) The kinetics of cellular re-dox reactions were subsequently measured at various times, for example at 3 hours, 3 days, and 5 days post-dye addition. […]

[2] = test system: Myxofibrosarcoma/thigh patient tumor cells; assay: Alamar Blue anti-tumor screen, IC50 on patient tumor cells, tumor #3; type: cell-based; settings: Homo sapiens, triplicate
Excerpt: as §1, §2, §3, §4

[3] = test system: Leiomyosarcoma/pelvic patient tumor cells; assay: Alamar Blue anti-tumor screen, IC50 on patient tumor cells, tumor #4; type: cell-based, human
Excerpt: (§5) Excess tissue specimens obtained from patients undergoing therapeutic surgical resections were freshly obtained at the time of surgery and a small portion of the specimen was sent for pathological testing. For diagnosis and grading of tissue samples (ie: prior to processing), hematoxylin and eosin stained tissue sections were examined by a pathologist. If the diagnosis and grading of the tissue concurred with the determination made by the surgical pathologist that provided the tissue, then the tissue was used in the screen. If there was no agreement, then two additional pathologists served as referees. If no consensus was reached, then the tissue was not used.
(§6) The remaining tissue was used to prepare cell suspensions. The tissue was initially treated enzymatically via standard methods until only undigested material remained. The digested cell suspension was filtered through one or more screens of between 40 micron and 100 micron porosity. The resulting cell suspension was further purified via isokinetic density centrifugation.
(§7) Additional normal cells were removed from the cell suspension by negative immunoselection with a combination of monoclonal antibodies linked to magnetic beads (Dynal) that were used according to the manufacturers' instructions. The remaining cells were placed into appropriate medium, frozen down in 1.0 mL aliquots, and stored until use.
After tissue processing, the relative purity of the resulting cell suspension was determined by cytological examination after fixation and Papanicolaou staining. Only those cell preparations greater than 80% tumor cells were used for testing of candidate compounds. If there was any doubt about the percentage of tumor cells in the cell preparation, additional pathologists served as referees to make a determination.
Cell preparations that passed histological and cytological examination for diagnosis, grading, and cell purity were thawed at 37° C. and resuspended in tissue culture medium designed to maintain the cells during the incubation period. The live and dead cells were counted and the cells were diluted in culture medium to 1.0×10^3 live cells/test well for tumor cells and 3.3×10^3 live cells/test well for normal cells.
The cells were added to microtiter plates and incubated at 37° C. overnight with 10 μM of the candidate compounds that were added at 1/10th the volume of the cell suspension. Alamar Blue (Accumed International, Westlake Ohio) was then added to the cells at 1/10 the volume of the well, and the cells were further incubated at 37° C. for various times. Alamar Blue dye measures cellular re-dox reactions (ie: cellular respiration) whereby a spectral shift occurs upon reduction of the dye. (Excitation 530 nm; emission 590 nm).
The kinetics of cellular re-dox reactions were subsequently measured at various times, for example at 3 hours, 3 days, and 5 days post-dye addition. These measurements, in comparison with control cells (untreated with compound) and media controls (test wells without cells) provide the percent inhibition of cellular mitochondrial respiration as a result of candidate compound treatment, as well as IC50 determinations.
In a blinded fashion, approximately 10,000 compounds were tested at a rate of 1,000-4,000 compounds per run set against various tumor types. The anti-tumor screen utilized was composed of three tiers as follows. In screen 1, patient tumor cells were tested in singles, with candidate compounds at a concentration of 10 μM. […]

[4] = test system: Gastrointestinal stromal tumor (sarcoma) patient tumor cells; assay: Alamar Blue anti-tumor screen, IC50 on patient tumor cells, tumor #6; type: cell-based; settings: Homo sapiens, triplicate
Excerpt: as §1, §2, §3, §4

[5] = test system: Ovarian patient tumor cells; assay: Alamar Blue anti-tumor screen, IC50 on patient tumor cells, tumor #7; type: cell-based; settings: Homo sapiens, triplicate
Excerpt: as §1, §2, §3, §4

[6] = test system: Gastrointestinal stromal tumor (sarcoma) patient tumor cells; assay: Alamar Blue anti-tumor screen, IC50 on patient tumor cells, tumor #5; type: cell-based; settings: Homo sapiens, triplicate
Excerpt: as §1, §2, §3, §4

patient tumor cells = assay: Anti-tumor screen 1 and 2 at 10 μM on patient tumor cells; type: cell-based, human; settings: for inhibition at 10 µM: Homo sapiens
Excerpt: as §5, §6, §7, §2, §3, §4

patient normal cells = assay: Anti-tumor screen 2 at 10 μM on patient normal cells; type: cell-based; settings: Homo sapiens, screen 2, 10 μM, in duplicate
Excerpt: as §1, §2, §3, §4

[7] = test system: Fibrohistiocytic Sarcoma/lung patient tumor cells; assay: Alamar Blue anti-tumor screen, IC50 on patient tumor cells, tumor #2; type: cell-based; settings: Homo sapiens, triplicate
Excerpt: as §1, §2, §3, §4

## O=C(Nc1ccc(Cl)cc1)c1cc(Cl)ccc1NS(=O)(=O)c1ccc(Cl)cc1 [Compound 1, 5-chloro-2-{[(4-chlorophenyl)sulfonyl]amino}-N-(4-chlorophenyl)benzamide]
[1]; Homo sapiens
  IC50: 170 nM
[1]
  IC50: 150 nM
[2]
  IC50: 49 nM
[3]; Homo sapiens, Tumor #4, Leiomyosarcoma/pelvic, patient tumor cells, triplicate (Table 2), read-out: IC50
  IC50: 339 nM
[3]; Tumor #4, Leiomyosarcoma/pelvic, patient tumor cells, triplicate (Table 2), read-out: IC50
  IC50: 410 nM
[4]
  IC50: 531 nM
[5]
  IC50: 35 nM
[6]
  IC50: 2400 nM
Patient tumor cells; screen 1, 10 μM, patient tumor cells, criterion: at least 80% inhibition and/or two standard deviations from the mean of the plate samples, read-out: inhibition (compared to cell and media controls)
  inhibition at 10 µM: ≥ 80%
Patient tumor cells; screen 2, 10 μM, in duplicate, patient tumors, read-out: inhibition on tumor cells
  inhibition at 10 µM: ≥ 80%
Patient tumor cells; three-tier anti-tumor screen, tumor versus normal patient cells, 10 μM
  selectivity against tumor cells: selectivity against tumor cells
Patient normal cells
  inhibition at 10 µM: ≤ 20%
[7]
  IC50: 30 nM

## O=C(Nc1ccc(Cl)cc1)c1cc(Br)ccc1NS(=O)(=O)c1ccc(Cl)cc1 [Compound 2, 5-bromo-2-{[(4-chlorophenyl)sulfonyl]amino}-N-(4-chlorophenyl)-benzamide]
[3]; Homo sapiens
  IC50: 44.7 nM

## O=C(Nc1ccc(Cl)cc1)c1cc(Br)ccc1NS(=O)(=O)c1ccc(Cl)c([N+](=O)[O-])c1 [Compound 3, (5-bromo-2-{[(4-chloro-3-nitrophenyl)sulfonyl]amino}phenyl)-N-(4-chlorophenyl)carboxamide]
[3]; Homo sapiens
  IC50: 118 nM

## O=C(Nc1ccc(Cl)cc1)c1cc2ccccc2cc1NS(=O)(=O)c1ccc(Cl)cc1 [Compound 5, N-(4-chlorophenyl)(3-{[(4-chlorophenyl)sulfonyl]amino}(2-naphthyl))-carboxamide]
[3]; Homo sapiens, Tumor #4 of Table 2, Leiomyosarcoma/pelvic, tested as in Example 3 (Table 3), read-out: IC50
  IC50: 209 nM
